Assay in all cases: Human Liver Microsomal CYP Inhibition Test
One data set addresses Cytochrome P450 2C19 (Homo sapiens, UniProt P33261). As for the experimental part:
(§1) 3.5.1 the working solution preparation of the compound to be tested and the positive control (100×);3.5.2 Taking the liver microsomes from the −80° C. cryogenic freezer and melting on ice;3.5.3 Adding 20 μL of substrate solution to the appropriate wells and 20 μL of potassium phosphate buffer to the blank wells;3.5.4 Adding 2 μL of different concentrations of target compounds (final concentrations from 0.05 μM to 50 μM, 7 concentrations in total) or standard inhibitors to each well, with 2 μL of methanol solution in the non-inhibitor and blank wells;3.5.5 Adding 1.012 mL of liver microsomes to 78.988 mL of potassium phosphate buffer, then adding 158 μL of liver microsomes solution to all wells; preheating the well plate for 10 minutes in a 37° C. water bath;3.5.6 Weighing 129.1 mg NADPH (purchased from SyncoZymes Co. Ltd.) and adding to 15.0 mL of 33 Mm MgCl2 solution to give a 10 mM concentration, adding 20 μL to each well;3.5.7 Mixing and incubating the well plate in a 37° C. water bath for 10 minutes, then adding 400 μL of cold termination solution at the appropriate time point;3.5.8 Centrifuging the sample at 4000 rpm for 20 minutes to precipitate the protein. Transferring 200 μL of supernatant to 100 μL of HPLC water and shaking for 10 minutes. The samples were analyzed by LC/MS/MS.

In another data set the target is Cytochrome P450 2D6 (Homo sapiens, UniProt P10635). As for the experimental part:
as §1

The target of a further data set is Cytochrome P450 2C9 (Homo sapiens, UniProt P11712). How it is done: as §1
Sequence of Cytochrome P450 2C9 (P11712 whole entry): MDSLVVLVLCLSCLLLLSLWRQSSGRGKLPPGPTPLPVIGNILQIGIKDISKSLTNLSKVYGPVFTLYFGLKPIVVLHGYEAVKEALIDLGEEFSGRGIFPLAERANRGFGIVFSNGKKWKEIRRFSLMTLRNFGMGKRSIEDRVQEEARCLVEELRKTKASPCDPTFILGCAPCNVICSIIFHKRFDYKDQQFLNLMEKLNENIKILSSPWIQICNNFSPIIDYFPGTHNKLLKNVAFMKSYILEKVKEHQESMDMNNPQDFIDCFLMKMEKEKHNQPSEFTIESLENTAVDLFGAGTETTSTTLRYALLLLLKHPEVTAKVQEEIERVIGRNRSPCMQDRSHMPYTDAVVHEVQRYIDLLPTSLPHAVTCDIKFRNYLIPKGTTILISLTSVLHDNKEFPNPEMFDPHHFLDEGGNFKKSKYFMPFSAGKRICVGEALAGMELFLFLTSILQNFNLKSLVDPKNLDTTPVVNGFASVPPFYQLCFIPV
For the next data set, the target named is T1, Cytochrome P450 1A2 (Homo sapiens, UniProt P05177).
T1 sequence (P05177 whole entry): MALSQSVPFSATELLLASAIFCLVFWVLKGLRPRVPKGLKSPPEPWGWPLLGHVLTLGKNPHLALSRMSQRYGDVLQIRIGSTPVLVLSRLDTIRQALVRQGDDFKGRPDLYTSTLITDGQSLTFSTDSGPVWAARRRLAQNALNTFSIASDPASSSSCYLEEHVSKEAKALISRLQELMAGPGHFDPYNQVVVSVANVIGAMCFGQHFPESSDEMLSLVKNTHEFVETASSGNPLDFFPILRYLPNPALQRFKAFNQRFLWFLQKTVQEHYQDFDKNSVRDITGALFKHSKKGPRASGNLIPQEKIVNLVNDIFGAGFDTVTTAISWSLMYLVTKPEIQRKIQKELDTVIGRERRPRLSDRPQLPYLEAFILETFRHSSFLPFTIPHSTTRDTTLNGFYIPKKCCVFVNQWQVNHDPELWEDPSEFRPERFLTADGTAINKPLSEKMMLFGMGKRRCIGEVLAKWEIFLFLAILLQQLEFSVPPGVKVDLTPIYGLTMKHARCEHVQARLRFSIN
As for the experimental part:
as §1

Sequence of Cytochrome P450 2D6 (P10635 whole entry): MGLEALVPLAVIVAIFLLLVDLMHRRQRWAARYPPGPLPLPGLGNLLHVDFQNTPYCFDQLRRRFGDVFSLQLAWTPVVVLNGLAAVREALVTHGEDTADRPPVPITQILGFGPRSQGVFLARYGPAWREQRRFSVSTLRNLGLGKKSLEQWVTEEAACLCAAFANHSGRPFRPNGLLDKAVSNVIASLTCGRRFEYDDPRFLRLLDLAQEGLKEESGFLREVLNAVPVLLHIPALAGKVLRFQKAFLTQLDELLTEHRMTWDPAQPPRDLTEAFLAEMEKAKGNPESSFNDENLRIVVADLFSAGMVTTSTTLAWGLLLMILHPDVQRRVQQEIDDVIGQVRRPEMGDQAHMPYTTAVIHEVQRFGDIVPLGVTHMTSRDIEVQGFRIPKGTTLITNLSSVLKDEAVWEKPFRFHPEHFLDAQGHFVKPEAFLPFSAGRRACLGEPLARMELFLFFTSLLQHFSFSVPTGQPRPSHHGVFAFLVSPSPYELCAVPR
Sequence of Cytochrome P450 2C19 (P33261 whole entry): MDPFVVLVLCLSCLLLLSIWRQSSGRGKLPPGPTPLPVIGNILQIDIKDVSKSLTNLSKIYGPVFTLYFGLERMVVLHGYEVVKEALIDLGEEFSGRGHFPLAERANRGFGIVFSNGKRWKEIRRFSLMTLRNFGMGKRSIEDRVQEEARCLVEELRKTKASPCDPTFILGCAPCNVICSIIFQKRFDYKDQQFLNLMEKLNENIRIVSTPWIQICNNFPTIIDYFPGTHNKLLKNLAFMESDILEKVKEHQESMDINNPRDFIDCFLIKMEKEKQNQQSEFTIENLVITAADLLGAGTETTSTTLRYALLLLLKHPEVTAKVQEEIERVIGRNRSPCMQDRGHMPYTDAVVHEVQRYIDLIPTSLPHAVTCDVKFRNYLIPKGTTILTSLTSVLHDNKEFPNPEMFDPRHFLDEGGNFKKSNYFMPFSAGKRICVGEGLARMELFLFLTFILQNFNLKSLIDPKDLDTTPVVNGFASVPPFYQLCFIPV

Take `COc1c([C@H]2[C@H](C(=O)Nc3ccc[n+]([O-])c3)C[C@@](C)(C(F)(F)F)[C@H]2C)ccc(F)c1F` [US20250296922, Compound 7]: the IC50 (commonly the point on the concentration scale where inhibition reaches its midpoint) against Cytochrome P450 2C19 was 2.13 µM; against Cytochrome P450 2D6 it was over 50 µM; against Cytochrome P450 2C9, over 50 µM; at Cytochrome P450 1A2 it was over 50 µM.

Source of the values: BindingDB's records for patent US20250296922 (Shanghai Wennai Therapeutics Co, 2025).
